{"source": "paper PMC6374431", "about": "“NMR Analysis on Molecular Interaction of Lignin with Amino Acid Residues of Carbohydrate-Binding Module from Trichoderma reesei Cel7A” (Scientific Reports, 2019)", "target": "T1, TrCBM1 (CBM1 of TrCel7A, cellobiohydrolase I) (Trichoderma reesei, UniProt P62694)", "T1 construct": "gene cbh1; isolated C-terminal family 1 CBM (36 residues) plus residual residues at N- and C-termini from enterokinase and thrombin cleavage; His tag and GFP removed; E. coli BL21(DE3); 15N-labeled, mass 5255", "T1 sequence (P62694 478-513)": "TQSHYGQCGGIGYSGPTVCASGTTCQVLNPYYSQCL", "test": "NMR titration, chemical shift perturbation (1H-15N SOFAST-HMQC)", "assay_type": "binding", "conditions": "100 μM 15N-TrCBM1, 100 mM citric acid buffer pH 5.0, 10% D2O, 298 K; cellohexaose 700-5600 μM; flat plane surface and cleft"}
{"smiles": "OC[C@H]1O[C@@H](O[C@H]2[C@H](O)[C@@H](O)[C@H](O[C@H]3[C@H](O)[C@@H](O)[C@H](O[C@H]4[C@H](O)[C@@H](O)[C@H](O[C@H]5[C@H](O)[C@@H](O)[C@H](O[C@H]6[C@H](O)[C@@H](O)C(O)O[C@@H]6CO)O[C@@H]5CO)O[C@@H]4CO)O[C@@H]3CO)O[C@@H]2CO)[C@H](O)[C@@H](O)[C@@H]1O", "note": "(stereo partly shown) [cellohexaose]", "values": [{"measurement": "Δδ (CSP)", "value": "The incremental addition of cellohexaose continuously increased Δδ."}]}
